In patent publication US20230226005A1, “Methods of Treating, Ameliorating, Shortening Duration, and/or Reversing Symptoms and/or Complications of a Coronavirus Infection” (Yale University, priority 2020, published 2023):

Key:
Assay type in all cases: in vivo
COVID-19 infection [1] = assay: Phase IIa study: body-family symptom score; conditions: for body-family symptoms, Fitzmaurice mixed effects model, Effect: Camostat vs Placebo
COVID-19 infection [2] = assay: Phase IIa study: eye-family symptom score
COVID-19 infection [3] = assay: Phase IIa study: nose-family symptom score

CN(C)C(=O)COC(=O)Cc1ccc(OC(=O)c2ccc(NC(=N)N)cc2)cc1 [camostat, 4-[[4-[(Aminoiminomethyl)amino]benzoyl]oxy]benzeneacetic acid 2-(dimethylamino)-2-oxoethyl ester]
body-family symptoms, Fitzmaurice mixed effects model, Camostat (COVID-19 infection [1]; Day 0): 17.1 (1.2) | body-family symptoms, Fitzmaurice mixed effects model, Camostat (COVID-19 infection [1]; Day 1): 14.3 (1.5) | body-family symptoms, Fitzmaurice mixed effects model, Effect (COVID-19 infection [1]; Day 1): −0.6 (1.7) | body-family symptoms, Fitzmaurice mixed effects model, Camostat (COVID-19 infection [1]; Day 2): 13.6 (1.5) | body-family symptoms, Fitzmaurice mixed effects model, Effect (COVID-19 infection [1]; Day 2): −2.1 (1.7) | body-family symptoms, Fitzmaurice mixed effects model, Camostat (COVID-19 infection [1]; Day 3): 11.9 (1.5) | body-family symptoms, Fitzmaurice mixed effects model, Effect (COVID-19 infection [1]; Day 3): −0.8 (1.7) | body-family symptoms, Fitzmaurice mixed effects model, Camostat (COVID-19 infection [1]; Day 4): 8.9 (1.5) | body-family symptoms, Fitzmaurice mixed effects model, Effect (COVID-19 infection [1]; Day 4): 0.9 (1.7) | body-family symptoms, Fitzmaurice mixed effects model, Camostat (COVID-19 infection [1]; Day 5): 7.3 (1.5) | body-family symptoms, Fitzmaurice mixed effects model, Effect (COVID-19 infection [1]; Day 5): 4.2 (1.7) | body-family symptoms, Fitzmaurice mixed effects model, Camostat (COVID-19 infection [1]; Day 6): 5.2 (1.5) | body-family symptoms, Fitzmaurice mixed effects model, Effect (COVID-19 infection [1]; Day 6): 4.4 (1.7) | body-family symptoms, Fitzmaurice mixed effects model, Camostat (COVID-19 infection [1]; Day 7): 4.9 (1.6) | body-family symptoms, Fitzmaurice mixed effects model, Effect (COVID-19 infection [1]; Day 7): 2.8 (1.7) | body-family symptoms, Fitzmaurice mixed effects model, Camostat (COVID-19 infection [1]; Day 8): 3.9 (1.6) | body-family symptoms, Fitzmaurice mixed effects model, Effect (COVID-19 infection [1]; Day 8): 3.1 (1.8) | body-family symptoms, Fitzmaurice mixed effects model, Camostat (COVID-19 infection [1]; Day 9): 3.8 (1.6) | body-family symptoms, Fitzmaurice mixed effects model, Effect (COVID-19 infection [1]; Day 9): 3.1 (1.8) | body-family symptoms, Fitzmaurice mixed effects model, Camostat (COVID-19 infection [1]; Day 10): 3.3 (1.6) | body-family symptoms, Fitzmaurice mixed effects model, Effect (COVID-19 infection [1]; Day 10): 3.1 (1.8) | body-family symptoms, Fitzmaurice mixed effects model, Camostat (COVID-19 infection [1]; Day 11): 3 (1.6) | body-family symptoms, Fitzmaurice mixed effects model, Effect (COVID-19 infection [1]; Day 11): 2.8 (1.8) | body-family symptoms, Fitzmaurice mixed effects model, Camostat (COVID-19 infection [1]; Day 12): 3.8 (1.6) | body-family symptoms, Fitzmaurice mixed effects model, Effect (COVID-19 infection [1]; Day 12): 1.6 (1.8) | body-family symptoms, Fitzmaurice mixed effects model, Camostat (COVID-19 infection [1]; Day 13): 3 (1.6) | body-family symptoms, Fitzmaurice mixed effects model, Effect (COVID-19 infection [1]; Day 13): 2.4 (1.8) | body-family symptoms, Fitzmaurice mixed effects model, Camostat (COVID-19 infection [1]; Day 14): 3.2 (1.6) | body-family symptoms, Fitzmaurice mixed effects model, Effect (COVID-19 infection [1]; Day 14): 2 (1.8) | eye-family symptom score, Fitzmaurice model, Camostat (COVID-19 infection [2]; day 0): 1.4 (0.2) | eye-family symptom score, Fitzmaurice model, Camostat (COVID-19 infection [2]; day 1): 1.4 (0.2) | eye-family symptom score, Fitzmaurice model, Effect (placebo vs camostat) (COVID-19 infection [2]; day 1): −0.3 (0.3) | eye-family symptom score, Fitzmaurice model, Camostat (COVID-19 infection [2]; day 2): 1.2 (0.2) | eye-family symptom score, Fitzmaurice model, Effect (placebo vs camostat) (COVID-19 infection [2]; day 2): −0.2 (0.3) | eye-family symptom score, Fitzmaurice model, Camostat (COVID-19 infection [2]; day 3): 0.9 (0.2) | eye-family symptom score, Fitzmaurice model, Effect (placebo vs camostat) (COVID-19 infection [2]; day 3): −0.2 (0.3) | eye-family symptom score, Fitzmaurice model, Camostat (COVID-19 infection [2]; day 4): 0.5 (0.2) | eye-family symptom score, Fitzmaurice model, Effect (placebo vs camostat) (COVID-19 infection [2]; day 4): 0.2 (0.3) | eye-family symptom score, Fitzmaurice model, Camostat (COVID-19 infection [2]; day 5): 0.5 (0.2) | eye-family symptom score, Fitzmaurice model, Effect (placebo vs camostat) (COVID-19 infection [2]; day 5): −0.2 (0.3) | eye-family symptom score, Fitzmaurice model, Camostat (COVID-19 infection [2]; day 6): 0.2 (0.2) | eye-family symptom score, Fitzmaurice model, Effect (placebo vs camostat) (COVID-19 infection [2]; day 6): 0.3 (0.3) | eye-family symptom score, Fitzmaurice model, Camostat (COVID-19 infection [2]; day 7): 0.2 (0.2) | eye-family symptom score, Fitzmaurice model, Effect (placebo vs camostat) (COVID-19 infection [2]; day 7): 0.3 (0.3) | eye-family symptom score, Fitzmaurice model, Camostat (COVID-19 infection [2]; day 8): 0.1 (0.2) | eye-family symptom score, Fitzmaurice model, Effect (placebo vs camostat) (COVID-19 infection [2]; day 8): 0.5 (0.3) | eye-family symptom score, Fitzmaurice model, Camostat (COVID-19 infection [2]; day 9): 0.2 (0.2) | eye-family symptom score, Fitzmaurice model, Effect (placebo vs camostat) (COVID-19 infection [2]; day 9): 0.4 (0.3) | eye-family symptom score, Fitzmaurice model, Camostat (COVID-19 infection [2]; day 10): 0.2 (0.2) | eye-family symptom score, Fitzmaurice model, Effect (placebo vs camostat) (COVID-19 infection [2]; day 10): 0.3 (0.3) | eye-family symptom score, Fitzmaurice model, Camostat (COVID-19 infection [2]; day 11): 0 (0.2) | eye-family symptom score, Fitzmaurice model, Effect (placebo vs camostat) (COVID-19 infection [2]; day 11): 0.4 (0.3) | eye-family symptom score, Fitzmaurice model, Camostat (COVID-19 infection [2]; day 12): 0 (0.2) | eye-family symptom score, Fitzmaurice model, Effect (placebo vs camostat) (COVID-19 infection [2]; day 12): 0.3 (0.3) | eye-family symptom score, Fitzmaurice model, Camostat (COVID-19 infection [2]; day 13): 0.1 (0.2) | eye-family symptom score, Fitzmaurice model, Effect (placebo vs camostat) (COVID-19 infection [2]; day 13): 0.1 (0.3) | eye-family symptom score, Fitzmaurice model, Camostat (COVID-19 infection [2]; day 14): 0.2 (0.2) | eye-family symptom score, Fitzmaurice model, Effect (placebo vs camostat) (COVID-19 infection [2]; day 14): 0.1 (0.3) | nose-family symptom score, Fitzmaurice model, Camostat (COVID-19 infection [3]; day 0): 7.6 (0.5) | nose-family symptom score, Fitzmaurice model, Camostat (COVID-19 infection [3]; day 1): 6.6 (0.6) | nose-family symptom score, Fitzmaurice model, Effect (placebo vs camostat) (COVID-19 infection [3]; day 1): 1.3 (0.7) | nose-family symptom score, Fitzmaurice model, Camostat (COVID-19 infection [3]; day 2): 6.6 (0.6) | nose-family symptom score, Fitzmaurice model, Effect (placebo vs camostat) (COVID-19 infection [3]; day 2): 0 (0.7) | nose-family symptom score, Fitzmaurice model, Camostat (COVID-19 infection [3]; day 3): 5.7 (0.6) | nose-family symptom score, Fitzmaurice model, Effect (placebo vs camostat) (COVID-19 infection [3]; day 3): 0.5 (0.7) | nose-family symptom score, Fitzmaurice model, Camostat (COVID-19 infection [3]; day 4): 5.6 (0.6) | nose-family symptom score, Fitzmaurice model, Effect (placebo vs camostat) (COVID-19 infection [3]; day 4): 0 (0.7) | nose-family symptom score, Fitzmaurice model, Camostat (COVID-19 infection [3]; day 5): 5.3 (0.6) | nose-family symptom score, Fitzmaurice model, Effect (placebo vs camostat) (COVID-19 infection [3]; day 5): 1 (0.7) | nose-family symptom score, Fitzmaurice model, Camostat (COVID-19 infection [3]; day 6): 3.9 (0.6) | nose-family symptom score, Fitzmaurice model, Effect (placebo vs camostat) (COVID-19 infection [3]; day 6): 1.4 (0.7) | nose-family symptom score, Fitzmaurice model, Camostat (COVID-19 infection [3]; day 7): 3.6 (0.6) | nose-family symptom score, Fitzmaurice model, Effect (placebo vs camostat) (COVID-19 infection [3]; day 7): 1.2 (0.7) | nose-family symptom score, Fitzmaurice model, Camostat (COVID-19 infection [3]; day 8): 3.3 (0.6) | nose-family symptom score, Fitzmaurice model, Effect (placebo vs camostat) (COVID-19 infection [3]; day 8): 1.5 (0.7) | nose-family symptom score, Fitzmaurice model, Camostat (COVID-19 infection [3]; day 9): 2.9 (0.6) | nose-family symptom score, Fitzmaurice model, Effect (placebo vs camostat) (COVID-19 infection [3]; day 9): 1.3 (0.7) | nose-family symptom score, Fitzmaurice model, Camostat (COVID-19 infection [3]; day 10): 2.9 (0.6) | nose-family symptom score, Fitzmaurice model, Effect (placebo vs camostat) (COVID-19 infection [3]; day 10): 0.9 (0.7) | nose-family symptom score, Fitzmaurice model, Camostat (COVID-19 infection [3]; day 11): 3 (0.6) | nose-family symptom score, Fitzmaurice model, Effect (placebo vs camostat) (COVID-19 infection [3]; day 11): 0.4 (0.7) | nose-family symptom score, Fitzmaurice model, Camostat (COVID-19 infection [3]; day 12): 2.5 (0.6) | nose-family symptom score, Fitzmaurice model, Effect (placebo vs camostat) (COVID-19 infection [3]; day 12): 0.7 (0.7) | nose-family symptom score, Fitzmaurice model, Camostat (COVID-19 infection [3]; day 13): 2.7 (0.6) | nose-family symptom score, Fitzmaurice model, Effect (placebo vs camostat) (COVID-19 infection [3]; day 13): 0.1 (0.7) | nose-family symptom score, Fitzmaurice model, Camostat (COVID-19 infection [3]; day 14): 2.7 (0.6) | nose-family symptom score, Fitzmaurice model, Effect (placebo vs camostat) (COVID-19 infection [3]; day 14): 0.2 (0.8)
